Where two headings read alike, the source gives them in different places.
How the values were obtained:
[1] = target: T1, rat A3 (Rattus norvegicus, UniProt P28647); settings: rat (r); [125I]APNEA, CHO cells transfected with rat A3; read-out: Antagonist potency (K1 or KB) A3 Receptor; cited from earlier work
T1 construct: expressed in transfected cells
T1 sequence (P28647 1-320): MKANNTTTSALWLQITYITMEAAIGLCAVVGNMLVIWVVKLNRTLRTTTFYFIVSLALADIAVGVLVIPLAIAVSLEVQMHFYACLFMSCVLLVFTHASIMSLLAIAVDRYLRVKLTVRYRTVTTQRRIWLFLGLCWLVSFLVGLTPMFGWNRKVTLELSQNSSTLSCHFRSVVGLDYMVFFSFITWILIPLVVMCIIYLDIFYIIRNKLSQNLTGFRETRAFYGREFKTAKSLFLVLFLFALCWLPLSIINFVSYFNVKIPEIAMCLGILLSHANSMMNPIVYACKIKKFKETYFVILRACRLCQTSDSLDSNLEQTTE

[2] = target: T2, A2B Receptor (Homo sapiens, UniProt P29275); settings: background statement; cited from earlier work
T2 sequence (P29275 1-332): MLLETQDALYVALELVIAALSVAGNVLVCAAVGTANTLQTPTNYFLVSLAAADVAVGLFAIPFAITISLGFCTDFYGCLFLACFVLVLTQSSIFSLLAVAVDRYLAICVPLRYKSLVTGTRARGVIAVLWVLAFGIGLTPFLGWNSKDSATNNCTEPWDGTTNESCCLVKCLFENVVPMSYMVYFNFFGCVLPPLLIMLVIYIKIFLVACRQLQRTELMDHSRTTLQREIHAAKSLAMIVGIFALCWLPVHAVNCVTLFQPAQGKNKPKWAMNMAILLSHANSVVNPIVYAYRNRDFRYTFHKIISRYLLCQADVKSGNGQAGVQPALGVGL

[3] = target: T3, A1 Receptor (Rattus norvegicus, UniProt P25099); settings: read-out: Antagonist potency (K1 or KB) A1 Receptor; rat (r); [3H]PIA, rat brain membranes; cited from earlier work
T3 sequence (P25099 1-326): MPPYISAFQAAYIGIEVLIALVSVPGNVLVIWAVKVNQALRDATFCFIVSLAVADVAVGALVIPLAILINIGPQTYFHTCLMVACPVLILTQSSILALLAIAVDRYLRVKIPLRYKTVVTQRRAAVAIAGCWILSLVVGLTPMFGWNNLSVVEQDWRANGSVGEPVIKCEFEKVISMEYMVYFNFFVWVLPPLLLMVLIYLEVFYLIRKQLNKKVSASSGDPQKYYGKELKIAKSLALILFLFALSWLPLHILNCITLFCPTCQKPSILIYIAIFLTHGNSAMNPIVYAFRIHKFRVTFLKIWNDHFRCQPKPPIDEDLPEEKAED

[4] = target: A2A Receptor (Rattus norvegicus, UniProt P30543); settings: read-out: Antagonist potency (K1 or KB) A2A Receptor; rat (r); CGS 21680 radioligand, rat striatal membranes; cited from earlier work
Sequence of A2A Receptor (Rattus norvegicus, UniProt P30543) (P30543 whole entry): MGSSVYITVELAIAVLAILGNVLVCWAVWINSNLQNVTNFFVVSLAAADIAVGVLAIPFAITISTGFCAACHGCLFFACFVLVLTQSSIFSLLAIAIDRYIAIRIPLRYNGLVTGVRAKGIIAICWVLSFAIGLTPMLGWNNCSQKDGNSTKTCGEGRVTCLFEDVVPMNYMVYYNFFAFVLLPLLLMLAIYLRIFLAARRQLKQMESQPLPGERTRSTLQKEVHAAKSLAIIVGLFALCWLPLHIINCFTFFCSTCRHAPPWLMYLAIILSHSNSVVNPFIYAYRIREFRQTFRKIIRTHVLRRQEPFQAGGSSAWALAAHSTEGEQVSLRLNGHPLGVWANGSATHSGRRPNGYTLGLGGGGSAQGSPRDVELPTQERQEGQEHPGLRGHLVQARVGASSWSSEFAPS

[5] = target: T2, A2B Receptor; assay: Inhibition of NECA-stimulated cAMP in HEL (human erythroleukemia) cells, Schild analysis; assay type: cell-based; set-up: endogenous in cells; host or cells: human erythroleukemia (HEL) cells; settings: for Schild analysis, type of antagonism at A2B receptors: NECA cAMP dose-response curves in human erythroleukemia cells with increasing antagonist concentrations, FIG. 1; for Kb: human (h), NECA-stimulated cAMP in HEL cells, read-out: Antagonist potency (K1 or KB) A2B Receptor
Source text: A Schild analysis derived from dose-response curves for accumulation of cAMP produced by NECA in human erythroleukemia cells in the absence and in the presence of increasing concentrations of the antagonists. […] The intercept at the x-axis is an estimate of the Ki of the antagonists.

[6] = target: T4, human A1 (Homo sapiens, UniProt P30542); settings: human (h); [3H]DPCPX, HEK-293 cells transfected with human A1; read-out: Antagonist potency (K1 or KB) A1 Receptor; cited from earlier work
T4 construct: expressed in transfected cells
T4 sequence (P30542 1-326): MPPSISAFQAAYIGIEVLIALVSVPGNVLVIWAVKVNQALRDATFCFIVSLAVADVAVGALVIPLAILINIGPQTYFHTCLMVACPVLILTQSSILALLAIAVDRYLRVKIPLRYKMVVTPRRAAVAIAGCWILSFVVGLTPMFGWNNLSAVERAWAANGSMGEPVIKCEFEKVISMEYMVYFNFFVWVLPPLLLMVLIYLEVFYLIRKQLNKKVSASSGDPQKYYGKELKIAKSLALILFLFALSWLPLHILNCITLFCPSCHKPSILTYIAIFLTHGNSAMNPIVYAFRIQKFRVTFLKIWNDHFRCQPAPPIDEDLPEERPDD

[7] = target: T4, human A1; assay: Displacement of [3H]DPCPX from membranes of CHO cells transfected with human A1; assay type: binding; settings: read-out: Antagonist potency (K1 or KB) A1 Receptor
[8] = target: T5, A2A Receptor (Homo sapiens, UniProt P29274); assay: Inhibition of CGS 21680-stimulated cAMP in HMC-1 cells; assay type: cell-based; settings: human (h), read-out: Antagonist potency (K1 or KB) A2A Receptor
T5 construct: endogenous in cells; host or cells: HMC-1 cells
T5 sequence (P29274 whole entry): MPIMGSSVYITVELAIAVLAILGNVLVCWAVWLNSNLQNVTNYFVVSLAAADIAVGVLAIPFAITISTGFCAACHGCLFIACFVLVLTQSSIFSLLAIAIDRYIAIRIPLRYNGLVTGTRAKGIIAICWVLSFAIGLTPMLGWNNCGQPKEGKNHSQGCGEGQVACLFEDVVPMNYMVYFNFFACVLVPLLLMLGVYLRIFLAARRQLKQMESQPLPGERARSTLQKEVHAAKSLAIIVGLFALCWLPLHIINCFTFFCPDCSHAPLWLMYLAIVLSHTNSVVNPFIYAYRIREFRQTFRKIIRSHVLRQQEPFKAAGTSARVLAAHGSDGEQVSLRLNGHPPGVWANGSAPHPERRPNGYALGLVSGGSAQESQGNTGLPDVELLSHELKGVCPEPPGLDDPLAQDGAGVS

[9] = target: T6, human A3 (Homo sapiens, UniProt P0DMS8); assay: Displacement of [3H]NECA from CHO cells transfected with human A3; assay type: binding; settings: read-out: Antagonist potency (K1 or KB) A3 Receptor
T6 construct: expressed in transfected cells
T6 sequence (P0DMS8 1-318): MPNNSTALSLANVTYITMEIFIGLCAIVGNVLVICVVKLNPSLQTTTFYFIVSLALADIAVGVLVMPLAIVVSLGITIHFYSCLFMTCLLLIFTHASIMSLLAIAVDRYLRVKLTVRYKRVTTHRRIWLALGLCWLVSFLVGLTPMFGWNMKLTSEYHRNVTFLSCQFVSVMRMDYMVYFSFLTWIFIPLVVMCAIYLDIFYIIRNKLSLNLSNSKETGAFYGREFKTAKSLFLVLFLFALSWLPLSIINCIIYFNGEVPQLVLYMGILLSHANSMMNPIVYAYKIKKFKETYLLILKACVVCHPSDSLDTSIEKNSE

CCCn1c(=O)c2[nH]c(-c3ccc(S(=O)(=O)O)cc3)nc2n(CCC)c1=O [DPSPX, 1,3-dipropyl-8-p-sulfophenylxanthine]
Kb [1]: > 100 µM | Affinity of xanthine antagonists at A2B receptors [2]: mid to high nM range | Kb [3]: 0.14 µM | Kb [4]: 0.79 µM | Schild analysis, type of antagonism at A2B receptors [5]: competitive antagonism | Kb [5]: 0.14 µM

CCCn1c(=O)[nH]c(=O)c2nc[nH]c21 [Enprofylline]
Kb [6]: 156 µM | Schild analysis, type of antagonism at A2B receptors [5]: competitive antagonism

CC(C)Cn1c(=O)[nH]c(=O)c2[nH]c(N3CCCC3)nc21 [Formula (I)]
Kb [7]: 31 µM | Kb [8]: 20 µM | Kb [9]: 53 µM | Schild analysis, type of antagonism at A2B receptors [5]: competitive antagonism | Potency compared with enprofylline ([5]; comparison from the potency table): much higher than that of enprofylline | Kb [5]: 0.525 µM

CCNC(=O)[C@H]1O[C@@H](n2cnc3c(NCc4ccccc4)ncnc32)[C@@H](O)C1O (stereo partly shown) [N^6-benzyl NECA]
Agonist activity or affinity at A2B receptors [2]: very low affinity

Cn1c(=O)c2[nH]cnc2n(C)c1=O [Theophylline]
Kb [1]: > 100 µM

— patent US6815446B1, “Selective antagonists of A2B adenosine receptors” (Vanderbilt University, priority 1999, dated 2004)
